According to US11000512B2, “Use of DDX3 inhibitors as antiproliferative agents” (AZIENDA OSPEDALIERA UNIVERSITARIA SENESE, priority 2016, dated 2021):
pIC50: −log10 of the molar value.

Columns and labels:
[1] = Parallel Artificial Membrane Permeability Assay (PAMPA), GI; format: in vitro ADME; details: GI (intestinal) PAMPA, value in brackets
Protocol: Parallel Artificial Membrane Permeability Assay (PAMPA). Donor solution (0.5 mM) was prepared by diluting 1 mM dimethylsulfoxide (DMSO) compound stock solution using phosphate buffer (pH 7.4, 0.025 M). Filters were coated with 5 μL of a 1% (w/v) dodecane solution of phosphatidylcholine prepared from CHCl3 solution 10% w/v, for intestinal permeability. Donor solution (150 μL) was added to each well of the filter plate. To each well of the acceptor plate were added 300 μL of solution (50% DMSO in phosphate buffer). All compounds were tested in three different plates on different days. The sandwich was incubated for 5 h at room temperature under gentle shaking. After the incubation time, the plates were separated, and samples were taken from both receiver and donor sides and analyzed using LC with UV detection at 280 nm.
LC analysis were performed with a Varian Prostar HPLC system (Varian Analytical Instruments, USA) equipped with a binary pump with a manual injection valve and model Prostar 325 UV-VIS Detector. Chromatographic separations were conducted using a Polaris C18-A column (150-4.6 mm, 5 μm particle size) at a flow rate of 0.8 mL min^−1 with a mobile phase composed of 60% ACN/40% H2O.
Permeability (Papp) for PAMPA was calculated according to the following equation, obtained from Wohnsland and Faller and Sugano et al. equation with some modification in order to obtain permeability values in cm s^−1,
where VA is the volume in the acceptor well, VD is the volume in the donor well (cm^3), A is the “effective area” of the membrane (cm^2), t is the incubation time (s) and r the ratio between drug concentration in the acceptor and equilibrium concentration of the drug in the total volume (VD+VA). Drug concentration is estimated by using the peak area integration.
Membrane retentions (%) were calculated according to the following equation: […]
where r is the ratio between drug concentration in the acceptor and equilibrium concentration, D, A, and Eq represented drug concentration in the donor, acceptor and equilibrium solution, respectively.

[2] = tested on: Human Prostate cell line derived from brain metastasis (DU-145); assay: Cytotoxicity test / growth inhibition, DU-145; format: cell-based; details: DU-145, 48 hours, cell counting
Protocol: (§1) Cells were purchased from American Type Culture Collection (ATCC, Manassas, Va., USA). The LNCaP (ATCC® CRL-1740™), A549 (ATCC® CCL-185™), MDA-MB-231 (ATCC® CRM-HTB-26™), 22Rv1 (ATCC® CRL-2505™), HCT-116 (ATCC® CCL-247™) and PC3 (ATCC® CRL-1435™) cells were maintained in Roswell Park Memorial Institute 1640 medium (RPMI; Euroclone, ECB9006L) supplemented with 10% fetal bovine serum (Euroclone; ECS0180L), 2 mM L-glutamine, 100 units/mL penicillin and […] streptomycin at 37° C. in an atmosphere of 5% CO2/air. DU145 (ATCC® HTB-81™), and DAOY (ATCC® HTB-186™) cells were maintained in Eagle's minimal essential medium (EMEM; Euro-clone, ECM0445L) supplemented with 10% fetal bovine serum (Euroclone; ECS0180L), 2 mM L-glutamine, 100 units/ml penicillin and […] streptomycin at 37° C. in an atmosphere of 5% CO2/air. SH-SY5Y (ATCC® CRL-2266™), DBRTG (ATCC® CRL-2020™), HeLa (ATCC® CCL-2™), HN6 cells (kindly provided by Dr Silvio Gutkind, UCSD Medical Center, Moores Cancer Center USA, Chen J. J et al, Oncotarget 2013, 4, 206-217)), U2OS (ATCC® HTB-96™), RD18 cells (kindly provided by Dr P. Boccuni Memorial Sloan-Kettering Cancer Center, New York, USA Vella S. et al. Clin Epigenetics. 2015 6; 7-82), cells were maintained in Dulbecco's modified Eagle's medium (DMEM; Euroclone, ECB7501L) supplemented with 10% fetal bovine serum (Euroclone; ECS0180L), 2 mM L-glutamine, 100 units/ml penicillin and 100 mg/mL streptomycin at 37° C. in an atmosphere of 5% CO2/air.
(§2) Cell lines were seeded at appropriate densities in 2 mL growth medium in 6-wells culture plates 24 hours before the treatment with the inhibitor compounds. After 24 h the culture medium was removed and fresh medium containing increasing concentrations of chemical compounds was added to cells. The fixed final concentrations were: 0.1 μM, 1 μM, 10 μM, 100 μM. DMSO was the vehicle used for dilution of the compounds and its final concentration on cells was less than 0.2%. Medium-only containing wells were included as controls. Cells were incubated 48 hours with drugs and, then, cell viability was evaluated.
(§3) Cells were detached from each well of the 6-wells plates with 300 μL of Trypsin and suspended in culture medium to a final volume of 1 mL. Cell viability was then assessed through cell counting. Cells were diluted in 1:50 ratio of an isotonic buffered diluent, Isoton (Backman Coulter), following the manufacturer's instructions, and counted using an automated cell counter (Z2 series Coulter Counter, Beckman Coulter). Each cell count was performed in three replicates. The values corresponding to the relative survival of cells in presence of each chemical compound at single concentrations were normalized to the untreated controls. […]

[3] = tested on: Human Prostate cancer cell line (PC3); assay: Cytotoxicity test / growth inhibition, PC3; format: cell-based; details: PC3, 48 hours, cell counting
Protocol: as §1, with “2015 6; 7-82), cells were maintained in Dulbecco's modified Eagle's medium (DMEM; Euroclone, ECB7501L) supplemented with 10% fetal bovine serum (Euroclone; ECS0180L), 2 mM L-glutamine, 100 units/ml penicillin and 100 mg/mL streptomycin at 37° C. in an atmosphere of 5% CO2/air.” left out
(§4) Cell lines were seeded at appropriate densities in 2 mL growth medium in 6-wells culture plates 24 hours before the treatment with the inhibitor compounds. […] Cells were incubated 48 hours with drugs and, then, cell viability was evaluated.
(§5) Cells were detached from each well of the 6-wells plates with 300 μL of Trypsin and suspended in culture medium to a final volume of 1 mL. Cell viability was then assessed through cell counting. Cells were diluted in 1:50 ratio of an isotonic buffered diluent, Isoton (Backman Coulter), following the manufacturer's instructions, and counted using an automated cell counter (Z2 series Coulter Counter, Beckman Coulter). […]

[4] = tested on: Human breast adenocarcinoma cell line (MDA-MB-231); assay: Cytotoxicity test / growth inhibition, MDA-MB-231; format: cell-based; details: MDA-MB-231, 48 hours, cell counting
Protocol: as §1, §2
(§6) Cells were detached from each well of the 6-wells plates with 300 μL of Trypsin and suspended in culture medium to a final volume of 1 mL. Cell viability was then assessed through cell counting. Cells were diluted in 1:50 ratio of an isotonic buffered diluent, Isoton (Backman Coulter), following the manufacturer's instructions, and counted using an automated cell counter (Z2 series Coulter Counter, Beckman Coulter). Each cell count was performed in three replicates. The values corresponding to the relative survival of cells in presence of each chemical compound at single concentrations were normalized to the untreated controls. Then, the half maximal inhibitory concentration (IC50) value, which represent the drug concentration that is required to induce a 50% growth inhibition in vitro, was calculated with GraphPad Prism 6.0 software using the best fitting sigmoid curve.

[5] = tested on: Human cervical carcinoma cell line (HeLa); assay: Cytotoxicity test / growth inhibition, HeLa; format: cell-based; details: 48 hours, cell counting
Protocol: as §1, with “2015 6; 7-82), cells were maintained in Dulbecco's modified Eagle's medium (DMEM; Euroclone, ECB7501L) supplemented with 10% fetal bovine serum (Euroclone; ECS0180L), 2 mM L-glutamine, 100 units/ml penicillin and 100 mg/mL streptomycin at 37° C. in an atmosphere of 5% CO2/air.” left out
as §4, §5

[6] = tested on: Human adenocarcinomic alveolar basal epithelial cell line (A549); assay: Cytotoxicity test / growth inhibition, A549; format: cell-based; details: A549, 48 hours, cell counting
Protocol: as §1, §2, §6

[7] = tested on: Human colorectal carcinoma cell line (HCT116); assay: Cytotoxicity test / growth inhibition, HCT116; format: cell-based; details: HCT-116, HCT116, 48 hours, cell counting
Protocol: as §1, with “2015 6; 7-82), cells were maintained in Dulbecco's modified Eagle's medium (DMEM; Euroclone, ECB7501L) supplemented with 10% fetal bovine serum (Euroclone; ECS0180L), 2 mM L-glutamine, 100 units/ml penicillin and 100 mg/mL streptomycin at 37° C. in an atmosphere of 5% CO2/air.” left out
as §4, §5

[8] = tested on: Human osteosarcoma cell line (U2OS); assay: Cytotoxicity test / growth inhibition, U2OS; format: cell-based; details: 48 hours, cell counting
Protocol: as §1, §2, §6

[9] = tested on: Human head and neck squamous carcinoma cell line (HN6); assay: Cytotoxicity test / growth inhibition, HN6; format: cell-based; details: HN6, 48 hours, cell counting
Protocol: as §1, §2, §6

[10] = tested on: Human muscle rhabdomyosarcoma cell line (RD18); assay: Cytotoxicity test / growth inhibition, RD18; format: cell-based; details: RD18, 48 hours, cell counting
Protocol: (§7) Cells were purchased from American Type Culture Collection (ATCC, Manassas, Va., USA). The LNCaP (ATCC® CRL-1740™), A549 (ATCC® CCL-185™), MDA-MB-231 (ATCC® CRM-HTB-26™), 22Rv1 (ATCC® CRL-2505™), HCT-116 (ATCC® CCL-247™) and PC3 (ATCC® CRL-1435™) cells were maintained in Roswell Park Memorial Institute 1640 medium (RPMI; Euroclone, ECB9006L) supplemented with 10% fetal bovine serum (Euroclone; ECS0180L), 2 mM L-glutamine, 100 units/mL penicillin and […] streptomycin at 37° C. in an atmosphere of 5% CO2/air. […]
as §4, §5

[11] = tested on: Human brain glioblastoma cell line (DBTRG); assay: Cytotoxicity test / growth inhibition, DBTRG; format: cell-based; details: 48 hours, cell counting
Protocol: as §7, §4, §5

[12] = tested on: Human medulloblastoma cell line (DAOY); assay: Cytotoxicity test / growth inhibition, DAOY; format: cell-based; details: 48 hours, cell counting
Protocol: as §7, §4, §5

[13] = Microsomal Stability Assay (HLM); format: in vitro ADME; details: human liver microsomes, 37° C., 60 min, NADPH-generating system; percentage of not metabolized compound
Excerpt: For the quantification was used an LC-MS system consisted of a Varian apparatus (Varian Inc) including a vacuum solvent degassing unit, two pumps (212-LC), a Triple Quadrupole MSD (Mod. 320-LC) mass spectrometer with ES interface and Varian MS Workstation System Control Vers. 6.9 software. Chromatographic separation was obtained using a Pursuit C18 column (50×2.0 mm) (Varian) with 3 μm particle size and gradient elution: eluent A being ACN and eluent B consisting of water. […] The flow rate was 0.2 mL min^−1 and injection volume was 5 μL. The instrument operated in positive mode and parameters were: detector 1850 V, drying gas pressure 25.0 psi, desolvation temperature 300.0° C., nebulizing gas 40.0 psi, needle 5000 V and shield 600 V. Nitrogen was used as nebulizer gas and drying gas. Collision induced dissociation was performed using Argon as the collision gas at a pressure of 1.8 mTorr in the collision cell. Microsomal Stability Assay. […] The reaction was stopped by cooling on ice and adding 1.0 mL of acetonitrile. The reaction mixtures were then centrifuged, and the parent drug and metabolites were subsequently determined by LC-UV-MS. Chromatographic analysis was performed with an Agilent 1100 LC/MSD VL system (G1946C) (Agilent Technologies, Palo Alto, Calif.) constituted by a vacuum solvent degassing unit, a binary high-pressure gradient pump, an 1100 series UV detector, and an 1100 MSD model VL benchtop mass spectrometer.
Chromatographic separation was obtained using a Varian Polaris C18-A column (150-4.6 mm, 5 μm particle size) and gradient elution: eluent A being ACN and eluent B consisting of water. […] The flow rate was 0.8 mL min^−1 and injection volume was 20 μL.
The Agilent 1100 series mass spectra detection (MSD) single-quadrupole instrument was equipped with the orthogonal spray API-ES (Agilent Technologies, Palo Alto, Calif.). Nitrogen was used as nebulizing and drying gas. The pressure of the nebulizing gas, the flow of the drying gas, the capillary voltage, the fragmentor voltage, and the vaporization temperature were set at 40 psi, 9 L/min, 3000 V, 70 V, and 350° C., respectively. UV detection was monitored at 280 nm. The LC-ESI-MS determination was performed by operating the MSD in the positive ion mode. Spectra were acquired over the scan range m/z 100-1500 using a step size of 0.1 u. The percentage of not metabolized compound was calculated by comparison with reference solutions.

[14] = tested on: Human Prostate Adenocarcinoma cell line (LNCaP); assay: Cytotoxicity test / growth inhibition, LNCaP; format: cell-based; details: 48 hours, cell counting
Protocol: as §7, §4, §5

[15] = tested on: Human Prostate carcinoma epithelial cell line (22Rv1); assay: Cytotoxicity test / growth inhibition, 22Rv1; format: cell-based; details: 22Rv1, 48 hours, cell counting
Protocol: as §7, §4, §5

[16] = tested on: Human Neuroblastoma cell line (SH-SY5Y); assay: Cytotoxicity test / growth inhibition, SH-SY5Y; format: cell-based; details: 48 hours, cell counting
Protocol: as §7, §4, §5

[17] = tested on: Human Glioblastoma cell line (U87); assay: Cytotoxicity test / growth inhibition, U87; format: cell-based; details: U87, 48 hours, cell counting
Protocol: as §2, §3

Row | PAMPA GI (RM %) membrane retention [1] [%] | Sability % [13] [%] | SMILES | pIC50 [2] | pIC50 [3] | pIC50 [4] | pIC50 [5] | pIC50 [6] | pIC50 [7] | pIC50 [8] | pIC50 [9] | pIC50 [10] | pIC50 [11] | pIC50 [12] | pIC50 [14] | pIC50 [15] | pIC50 [16] | pIC50 [17]
1 | 23.9 |  | CCCCc1cn(-c2ccc(NC(=O)Nc3ccccc3C(F)(F)F)cc2)nn1 [Compound 22a, 1-(4-(4-butyl-1H-1,2,3-triazol-1-yl)phenyl)-3-(2-(trifluoromethyl)phenyl)urea] | 7.00 | 4.59 | 5.85 | 5.20 | 5.85 | 5.41 | 5.38 | 6.10 | 5.49 | 5.24 | 5.48 |  |  |  | 
2 |  | 99 | CCCCc1cn(-c2cccc(S(=O)(=O)Nc3ccccc3C(F)(F)F)c2)nn1 [Compound 64d, 3-(4-butyl-1H-1,2,3-triazol-1-yl)-N-(2-(trifluoromethyl)phenyl)benzenesulfonamide] | 5.52 |  | 4.80 | 4.29 | 4.67 |  |  |  |  |  |  | 4.78 | 4.85 | 4.73 | 4.06
